Consider 2 compounds from article PMC9506480, “Synthesis and Evaluation of Antiproliferative Activity, Topoisomerase IIα Inhibition, DNA Binding and Non-Clinical Toxicity of New Acridine–Thiosemicarbazone Derivatives” (Pharmaceuticals, 2022).

In assay [1] the test system is HCT116 (human colon carcinoma). Also noted: method as in Silva et al. (2018) [67]. The following applies: ref Silva et al. (2018) [67]; cited from earlier work.
In assay [2] the test system is HepG2 (human hepatocellular carcinoma). Set-up: method as in Silva et al. (2018) [67]. The following applies: ref Silva et al. (2018) [67]; cited from earlier work.
The subject of assay [3] is MRC-5 (human lung fibroblast). Set-up: method as in Silva et al. (2018) [67]. The following applies: ref Silva et al. (2018) [67]; cited from earlier work.
For assay [4], the system named is B16-F10 (murine melanoma). Set-up: method as in Silva et al. (2018) [67]. The following applies: ref Silva et al. (2018) [67]; cited from earlier work.
Assay [5] deals with CT DNA. The assay can be described thus: CT DNA binding by UV–Vis absorption spectroscopy. Also noted: species or system calf. The conditions noted are these: compound 40 µM, CT DNA 0 to 60 µM, Tris-HCl pH 7.4. The protocol: Absorption spectroscopy is a convenient and simple method for probing the binding of small molecules to DNA. The interaction of selected acridine–thiosemicarbazone derivatives with CT DNA was studied in the 220–500 nm region. Binding constants (Kb) were calculated from [DNA]/(Ɛa − Ɛf) versus [DNA], in which Kb is given by the ratio of slope to the intercept. […] For this, the regions chosen were the ones with the highest absorption intensity above 300 nm, due to the lower interference in DNA absorption in this region (ESI, Figures S50 and S53).
The concentration of the calf thymus, Type I, fibers (CT DNA), was determined based on the extinction coefficient of the absorbance at 260 nm (6600 L mol^−1 cm^−1). All compounds were dissolved in methanol (HPLC grade) at a concentration of 1 mmol L^−1 (stock solution). Working solutions were prepared by diluting the stock solution using Tris-HCl buffer (pH 7.4), with concentrations of 40 µmol L^−1. Under the optimized concentration, the compounds were titered with increasing concentrations of CT DNA (5 to 60 µmol L^−1). After shaking the system and incubating at room temperature for 10 min, the measurements were recorded using a JASCO J818 spectropolarimeter in the range of 220 to 500 nm at 298 K. The intrinsic bond constant (Kb) was obtained by adjusting the data according to the equation below:[DNA]/(Ɛa − Ɛf) = [DNA]/(Ɛb − Ɛf) + 1/[Kb (Ɛb − Ɛf)] where Ɛa, Ɛb and Ɛf are the apparent extinction coefficient of the compounds, the extinction coefficient of the compounds found in their […] and the extinction coefficient of the compounds when fully DNA-bound, respectively. The graph of [DNA]/(Ɛa − Ɛf) versus [DNA] was used to obtain the Kb from the ratio between the slope and the intercept, as previously described in the literature. Binding data were obtained using SigmaPlot 10.0 software. The study of possible DNA denaturation using methanol–water solutions was evaluated up to the maximum final concentration of methanol in the assays (6%) (ESI, Figures S50 and S53).

Consider `O=c1[nH]cc(F)c(=O)[nH]1` [5-FU, 5-fluorouracil], for which the half-maximal inhibitory concentration (IC50) in assay [1] is 4.1 µM; in assay [2], 1.3 µM; in assay [3] it was 57.9 µM; in assay [4], 3.5 µM.

`CC[n+]1c(-c2ccccc2)c2cc(N)ccc2c2ccc(N)cc21` [EtBr, ethidium bromide, reference compound]: in assay [5], the “Hypochromic (%)” value came to 35.15%.

One may read the IC50 as the concentration that inhibits the measured activity by half.
